Assay results: patent US10711002B2, “Purine compounds and method for the treatment of cancer” (THE ROYAL INSTITUTION FOR THE ADVANCEMENT OF …, priority 2016, dated 2020)
One block for each molecule: values may come before it.

Key:
Assay in all cases: High-throughput kinase assay
Type in all cases: biochemical
EEF2K = EEF2K (Homo sapiens, UniProt O00418); settings: read-out: Percent inhibition of kinase activity in vitro, EEF2K; for inhibition at 0.1 µM: 100 nM; for inhibition at 0.5 µM: 500 nM
Method: (§1) Screening of Compounds 1-4 against several kinases identified two prominent targets of these compounds as the Aurora A kinase and calcium dependent protein kinase C isoforms α, βI, βII and […] (Tables 1 to 3). IC50s for these two targets were obtained by plotting inhibition levels at 500 nM, 100 nM, 50 nM and 10 nM (FIG. 3). These kinases are directly involved in pathways controlling cell differentiation programs, metastasis signaling, as well as EMT and CSC programming and their overexpression was reported to predict decreased metastasis-free survival.

LCK = LCK (Homo sapiens, UniProt P06239); settings: read-out: Percent inhibition of kinase activity in vitro, LCK; for inhibition at 0.1 µM: 100 nM; for inhibition at 0.5 µM: 500 nM
Method: as §1

PRKCQ (PKC theta) = PRKCQ (PKC theta) (Homo sapiens, UniProt Q04759); settings: 50 nM; read-out: Percent inhibition of kinase activity in vitro, PRKCQ (PKC theta)
Method: as §1

ERBB2 (HER2) = ERBB2 (HER2) (Homo sapiens, UniProt P04626); settings: 500 nM; read-out: Percent inhibition of kinase activity in vitro, ERBB2 (HER2)
Method: as §1

RAF1 (cRAF) Y340D Y341D = RAF1 (cRAF) Y340D Y341D (Homo sapiens, UniProt P04049, Y340D/Y341D); settings: 500 nM; read-out: Percent inhibition of kinase activity in vitro, RAF1 (cRAF) Y340D Y341D
Method: as §1

PRKCI (PKC iota) = molecular target: T1, PRKCI (PKC iota) (Homo sapiens, UniProt P41743); settings: 50 nM; read-out: Percent inhibition of kinase activity in vitro, PRKCI (PKC iota)
T1 sequence (P41743 1-596): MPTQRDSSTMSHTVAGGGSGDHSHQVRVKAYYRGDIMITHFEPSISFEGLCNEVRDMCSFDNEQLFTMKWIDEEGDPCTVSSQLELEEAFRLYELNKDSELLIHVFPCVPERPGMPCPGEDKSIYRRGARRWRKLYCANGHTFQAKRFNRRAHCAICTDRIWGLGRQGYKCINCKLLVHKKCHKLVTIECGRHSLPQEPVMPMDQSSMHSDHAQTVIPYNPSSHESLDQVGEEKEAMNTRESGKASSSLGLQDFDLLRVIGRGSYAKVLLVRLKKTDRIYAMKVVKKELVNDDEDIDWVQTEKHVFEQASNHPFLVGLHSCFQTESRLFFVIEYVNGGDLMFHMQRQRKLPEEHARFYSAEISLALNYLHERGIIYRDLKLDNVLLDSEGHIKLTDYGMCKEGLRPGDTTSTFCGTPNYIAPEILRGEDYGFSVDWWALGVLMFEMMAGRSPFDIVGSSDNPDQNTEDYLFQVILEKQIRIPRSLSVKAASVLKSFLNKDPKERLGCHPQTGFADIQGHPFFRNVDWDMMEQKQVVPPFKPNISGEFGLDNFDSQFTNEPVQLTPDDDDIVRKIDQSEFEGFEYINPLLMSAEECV
Method: as §1

PRKD1 (PKC mu) = molecular target: T2, PRKD1 (PKC mu) (Homo sapiens, UniProt Q15139); settings: 50 nM; read-out: Percent inhibition of kinase activity in vitro, PRKD1 (PKC mu)
T2 sequence (Q15139 1-912): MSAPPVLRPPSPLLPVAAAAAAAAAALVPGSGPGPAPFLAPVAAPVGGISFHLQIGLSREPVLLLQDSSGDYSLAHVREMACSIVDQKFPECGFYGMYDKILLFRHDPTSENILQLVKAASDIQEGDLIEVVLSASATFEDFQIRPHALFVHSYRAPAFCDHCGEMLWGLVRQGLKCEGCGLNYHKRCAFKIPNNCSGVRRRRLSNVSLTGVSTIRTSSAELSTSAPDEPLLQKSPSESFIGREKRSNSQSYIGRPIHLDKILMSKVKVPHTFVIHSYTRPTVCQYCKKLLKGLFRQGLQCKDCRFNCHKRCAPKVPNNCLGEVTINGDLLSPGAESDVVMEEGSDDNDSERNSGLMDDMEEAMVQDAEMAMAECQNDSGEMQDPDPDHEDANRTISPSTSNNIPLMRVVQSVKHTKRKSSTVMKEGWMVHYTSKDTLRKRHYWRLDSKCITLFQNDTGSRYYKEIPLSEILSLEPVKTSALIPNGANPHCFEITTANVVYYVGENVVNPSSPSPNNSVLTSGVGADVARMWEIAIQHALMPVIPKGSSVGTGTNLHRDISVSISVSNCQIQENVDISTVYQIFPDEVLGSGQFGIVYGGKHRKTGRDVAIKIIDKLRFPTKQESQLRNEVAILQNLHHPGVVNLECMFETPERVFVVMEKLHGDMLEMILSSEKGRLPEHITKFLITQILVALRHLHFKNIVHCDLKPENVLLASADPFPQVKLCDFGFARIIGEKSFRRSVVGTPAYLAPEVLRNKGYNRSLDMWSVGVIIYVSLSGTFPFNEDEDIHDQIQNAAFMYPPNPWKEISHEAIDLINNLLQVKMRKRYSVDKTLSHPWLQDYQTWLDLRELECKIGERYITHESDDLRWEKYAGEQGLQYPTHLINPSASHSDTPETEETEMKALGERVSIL
Method: as §1

PRKCZ (PKC zeta) = molecular target: T3, PRKCZ (PKC zeta) (Homo sapiens, UniProt Q05513); settings: 50 nM; read-out: Percent inhibition of kinase activity in vitro, PRKCZ (PKC zeta)
T3 sequence (Q05513 1-592): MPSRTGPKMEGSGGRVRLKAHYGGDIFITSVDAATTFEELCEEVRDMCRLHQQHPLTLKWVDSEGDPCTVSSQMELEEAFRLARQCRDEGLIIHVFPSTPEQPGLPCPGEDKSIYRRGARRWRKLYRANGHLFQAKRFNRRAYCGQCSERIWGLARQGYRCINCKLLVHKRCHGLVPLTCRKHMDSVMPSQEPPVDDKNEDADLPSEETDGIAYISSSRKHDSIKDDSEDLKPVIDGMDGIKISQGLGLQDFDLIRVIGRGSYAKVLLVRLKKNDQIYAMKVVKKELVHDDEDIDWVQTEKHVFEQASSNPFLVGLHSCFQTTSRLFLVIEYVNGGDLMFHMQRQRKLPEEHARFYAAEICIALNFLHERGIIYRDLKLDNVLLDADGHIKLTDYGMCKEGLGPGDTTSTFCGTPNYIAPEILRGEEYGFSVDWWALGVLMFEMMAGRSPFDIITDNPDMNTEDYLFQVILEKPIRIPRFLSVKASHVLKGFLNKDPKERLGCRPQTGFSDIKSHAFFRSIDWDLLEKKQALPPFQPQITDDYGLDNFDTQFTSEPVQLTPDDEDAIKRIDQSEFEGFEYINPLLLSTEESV
Method: as §1

Chain of RAF1 (cRAF) Y340D Y341D (P04049 whole entry Y340D/Y341D): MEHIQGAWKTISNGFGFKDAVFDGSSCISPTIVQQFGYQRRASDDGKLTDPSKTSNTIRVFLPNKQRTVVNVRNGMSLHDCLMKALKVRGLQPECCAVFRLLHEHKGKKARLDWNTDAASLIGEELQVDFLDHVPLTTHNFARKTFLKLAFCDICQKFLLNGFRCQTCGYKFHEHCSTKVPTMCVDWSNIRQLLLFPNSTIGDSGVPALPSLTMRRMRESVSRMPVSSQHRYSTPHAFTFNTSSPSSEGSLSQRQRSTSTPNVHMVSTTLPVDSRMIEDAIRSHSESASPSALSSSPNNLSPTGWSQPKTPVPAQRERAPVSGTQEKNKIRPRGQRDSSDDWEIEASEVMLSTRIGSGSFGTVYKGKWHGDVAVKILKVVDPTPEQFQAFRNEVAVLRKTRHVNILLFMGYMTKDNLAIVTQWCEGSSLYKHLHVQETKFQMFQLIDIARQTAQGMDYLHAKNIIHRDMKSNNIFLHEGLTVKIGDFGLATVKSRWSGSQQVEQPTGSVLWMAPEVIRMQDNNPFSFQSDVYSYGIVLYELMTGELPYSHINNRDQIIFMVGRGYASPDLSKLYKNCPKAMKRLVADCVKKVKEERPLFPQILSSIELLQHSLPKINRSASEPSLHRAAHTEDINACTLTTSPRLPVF
Chain of PRKCQ (PKC theta) (Q04759 whole entry): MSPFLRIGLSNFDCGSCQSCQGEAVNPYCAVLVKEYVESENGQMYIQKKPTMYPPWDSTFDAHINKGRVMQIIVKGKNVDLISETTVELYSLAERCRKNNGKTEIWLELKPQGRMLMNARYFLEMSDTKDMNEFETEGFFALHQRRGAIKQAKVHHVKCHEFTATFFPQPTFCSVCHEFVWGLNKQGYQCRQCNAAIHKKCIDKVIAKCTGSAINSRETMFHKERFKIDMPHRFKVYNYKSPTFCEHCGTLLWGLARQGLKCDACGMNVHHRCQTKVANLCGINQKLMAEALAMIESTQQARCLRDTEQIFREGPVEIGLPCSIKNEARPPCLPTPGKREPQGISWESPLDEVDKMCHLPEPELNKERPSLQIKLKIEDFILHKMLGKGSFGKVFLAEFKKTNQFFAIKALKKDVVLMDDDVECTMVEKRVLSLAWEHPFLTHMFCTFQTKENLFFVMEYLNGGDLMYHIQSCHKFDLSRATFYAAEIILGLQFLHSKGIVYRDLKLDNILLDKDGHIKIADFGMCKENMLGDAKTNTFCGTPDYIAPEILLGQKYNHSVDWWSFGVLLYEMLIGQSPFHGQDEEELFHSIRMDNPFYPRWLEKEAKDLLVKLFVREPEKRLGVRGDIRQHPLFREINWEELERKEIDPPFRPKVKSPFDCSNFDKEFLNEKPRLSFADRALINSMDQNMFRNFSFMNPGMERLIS
Chain of LCK (P06239 whole entry): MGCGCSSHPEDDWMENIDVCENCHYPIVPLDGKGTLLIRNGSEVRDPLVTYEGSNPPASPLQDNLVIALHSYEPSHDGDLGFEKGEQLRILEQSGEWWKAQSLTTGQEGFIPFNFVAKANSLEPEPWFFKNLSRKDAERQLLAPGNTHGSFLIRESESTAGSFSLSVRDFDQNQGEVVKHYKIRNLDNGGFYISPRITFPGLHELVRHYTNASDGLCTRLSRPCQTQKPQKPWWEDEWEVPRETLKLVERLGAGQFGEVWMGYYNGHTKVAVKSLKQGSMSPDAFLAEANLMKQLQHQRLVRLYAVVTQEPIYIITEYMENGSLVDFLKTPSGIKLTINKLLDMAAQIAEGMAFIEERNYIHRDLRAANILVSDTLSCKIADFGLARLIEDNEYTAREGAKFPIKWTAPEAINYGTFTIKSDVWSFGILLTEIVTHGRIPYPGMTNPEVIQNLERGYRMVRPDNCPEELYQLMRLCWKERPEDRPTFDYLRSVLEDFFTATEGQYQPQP
Chain of ERBB2 (HER2) (P04626 23-1255): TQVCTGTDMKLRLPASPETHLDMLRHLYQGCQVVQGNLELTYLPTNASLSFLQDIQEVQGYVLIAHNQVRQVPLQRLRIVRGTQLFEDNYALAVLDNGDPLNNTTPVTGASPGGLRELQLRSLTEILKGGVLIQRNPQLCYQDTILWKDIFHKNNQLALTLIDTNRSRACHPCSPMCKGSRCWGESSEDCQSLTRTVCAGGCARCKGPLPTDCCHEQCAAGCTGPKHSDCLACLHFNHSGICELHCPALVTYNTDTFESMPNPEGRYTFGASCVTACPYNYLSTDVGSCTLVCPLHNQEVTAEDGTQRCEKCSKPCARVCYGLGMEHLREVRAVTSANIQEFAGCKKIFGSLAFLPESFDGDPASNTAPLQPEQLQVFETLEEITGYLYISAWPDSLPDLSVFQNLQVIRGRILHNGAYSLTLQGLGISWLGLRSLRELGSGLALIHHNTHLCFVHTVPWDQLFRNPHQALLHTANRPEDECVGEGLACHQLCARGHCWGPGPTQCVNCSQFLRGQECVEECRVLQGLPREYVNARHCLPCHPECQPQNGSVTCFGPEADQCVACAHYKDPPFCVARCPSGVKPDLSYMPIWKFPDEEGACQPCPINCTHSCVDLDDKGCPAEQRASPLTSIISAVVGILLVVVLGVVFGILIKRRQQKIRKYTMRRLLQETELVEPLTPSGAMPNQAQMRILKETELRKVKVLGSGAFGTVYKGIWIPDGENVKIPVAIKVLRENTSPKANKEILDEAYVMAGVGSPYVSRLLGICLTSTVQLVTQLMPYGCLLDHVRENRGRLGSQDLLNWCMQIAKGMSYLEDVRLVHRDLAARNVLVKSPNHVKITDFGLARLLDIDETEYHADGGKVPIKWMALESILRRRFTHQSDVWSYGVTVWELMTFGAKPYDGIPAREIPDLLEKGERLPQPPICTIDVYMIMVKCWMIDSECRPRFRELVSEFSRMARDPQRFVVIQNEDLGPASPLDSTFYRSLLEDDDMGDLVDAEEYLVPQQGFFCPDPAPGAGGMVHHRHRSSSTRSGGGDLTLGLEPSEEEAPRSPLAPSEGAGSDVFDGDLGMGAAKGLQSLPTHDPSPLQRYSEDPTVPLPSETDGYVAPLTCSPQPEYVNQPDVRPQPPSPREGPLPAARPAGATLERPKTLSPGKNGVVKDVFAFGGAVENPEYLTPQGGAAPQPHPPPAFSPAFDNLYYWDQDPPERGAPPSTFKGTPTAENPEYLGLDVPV

SMILES: O=c1c2ccccc2[se]n1-c1nc(NC2CCCCC2)c2nc[nH]c2n1 [Compound 1]
inhibition at 0.1 µM (EEF2K): 7%
inhibition at 0.5 µM (EEF2K): 11%
inhibition at 0.1 µM (LCK): 7%
inhibition at 0.5 µM (LCK): 14%
inhibition at 0.05 µM (PRKCQ (PKC theta)): 62%
inhibition at 0.5 µM (ERBB2 (HER2)): 0%
inhibition at 0.5 µM (RAF1 (cRAF) Y340D Y341D): 4%
inhibition at 0.05 µM (PRKCI (PKC iota)): 4%
inhibition at 0.05 µM (PRKD1 (PKC mu)): 5%
inhibition at 0.05 µM (PRKCZ (PKC zeta)): 9%

SMILES: O=c1c2ccccc2[se]n1-c1nc(NC2CC[Se]C2)c2nc[nH]c2n1 (centres unmarked) [Compound 2]
inhibition at 0.5 µM (EEF2K): 11%
inhibition at 0.1 µM (LCK): 10%
inhibition at 0.5 µM (LCK): 14%
inhibition at 0.5 µM (ERBB2 (HER2)): 0%
inhibition at 0.5 µM (RAF1 (cRAF) Y340D Y341D): 0%

SMILES: C[C@@H]1C(Nc2nc(-n3[se]c4ccccc4c3=O)nc3[nH]cnc23)C[C@H]2C[C@@H]1C2(C)C (some centres unmarked) [Compound 3]
inhibition at 0.5 µM (EEF2K): 5%
inhibition at 0.1 µM (LCK): 0%
inhibition at 0.5 µM (LCK): 16%
inhibition at 0.5 µM (ERBB2 (HER2)): 2%
inhibition at 0.5 µM (RAF1 (cRAF) Y340D Y341D): 10%

SMILES: O=c1c2ccccc2[se]n1-c1nc(N[C@H]2CC[Se]C2)c2nc[nH]c2n1 [Compound 4]
inhibition at 0.1 µM (EEF2K): 10%
inhibition at 0.1 µM (LCK): 8%
inhibition at 0.05 µM (PRKCQ (PKC theta)): 98%
inhibition at 0.05 µM (PRKCI (PKC iota)): 7%
inhibition at 0.05 µM (PRKD1 (PKC mu)): 7%
inhibition at 0.05 µM (PRKCZ (PKC zeta)): 12%

inhibition at 0.1 µM (EEF2K): 1%
inhibition at 0.1 µM (LCK): 8%
inhibition at 0.05 µM (PRKCQ (PKC theta)): 0%
inhibition at 0.05 µM (PRKCI (PKC iota)): 7%
inhibition at 0.05 µM (PRKD1 (PKC mu)): 6%
inhibition at 0.05 µM (PRKCZ (PKC zeta)): 9%
SMILES: O=C1c2ccccc2CN1c1nc(NC2CCCCC2)c2nc[nH]c2n1 [SLLN-6C, reference compound]
